Entries after “also recorded” stand apart in the source; their conditions may differ.
Experiments:
aged Tet2-KO mice = experiment: Treatment of aged Tet2-KO mice with early signs of MPN; format: in vivo, mouse; conditions: for frequency of LSKs and CMPs / neutrophil counts (absolute numbers, burden) in peripheral blood / neutrophil frequency (percentage) in peripheral blood / platelet counts / red blood cell (RBC) counts (anemia) / serum IL-6 levels / spleen weight / splenomegaly / white blood cell (WBC) burden/count: treatment for 14 days; for early signs of MPN: aged Tet2-KO mice
Procedure: (§1) Lipopolysaccharide (LPS) was purchased from Sigma (Cat # L8643) and dissolved in sterile phosphate-buffered saline (PBS) prior to being given to the mice for one dose only (0.8 mg/kg, i.p.). APX3330 (also referred to herein as E3330) was dissolved in Cremophor:EtOH (1:1) (Cremophor were purchased from Sigma, Cat # C5135) for making solution stock and then diluted in PBS prior to be used for pre-LPS treatment or post-LPS treatment (20 mg/kg, twice a day, i.p.). SHP099 (provided by Norvartis), was dissolved in 0.5% Methylcellulose (Sigma, Cat# M0262) and 0.1% Tween-80 (Fisher Scientific, Cat #BP338-500) and fed to animals by gavage (daily, 50 mg/kg). Male and female mice between 3-4 weeks (juvenile mice) or 8-16 weeks (adult mice) of age were used for LPS or LPS plus APX3330 experiments. Age and sex matched mice were always used as naïve (Day 0) controls. Aged Tet2-KO mice (male or female, 6-8 months of age) were used for APX3330 or SHP099 treatment in FIGS. 11A-11D.
(§2) Hematological analysis on peripheral blood (PB, from tail-bleeding) was run by an automated cell counter machine (Drew Hemavet 950). Total bone marrow (BM) cells were harvested from two femurs and two tibias of mice and filtered on 50-μm sterile filters. BM cells were always kept on ice or in refrigeration and stored in sterile blocking buffer containing 2% rat-serum prior to analysis. BM cellularity (viable cell counts) was analyzed by an automated cell counter (Beckman the Vi-CELL™ Cell Counter for Cell Viability Analyzer).
(§3) Flow cytometry. Non-lysed BM cells were used for analysis of erythroid lineage and progenitor cells (Ter119 and CD71 staining). Remaining flow cytometry analysis was performed on lysed bone marrow cells (Lysis Buffer, BD, Cat #555899). Antibodies against Ter119, Mac1, Gr1, B220, CD3, CD4 and CD8 were used for mature cells labeling (Linage labeling). Progenitor cells were labeled and analyzed by indicated markers. Antibody-labeled BM cells were run on a BD FACS-CANTO II machine with a two-laser and six-filter configuration. The properly compensated flow data were analyzed by Flow Jo software (V10.2). Events plotting, calculation of frequency and mean of fluorescence intensity (MFI), and histogram overlaying were analyzed by Flow Jo software.
Multiplex cytokine assays. Serum samples were prepared from PB (tail-bleeding) and diluted in sterile PBS (1 to 2 dilution(s)). Thirty-one cytokines or chemokines were quantified by multiplex immunoassay with a BioPlex 200 instrument (Eve Technologies, Mouse Cytokine Array/Chemokine Array 31-Plex, Cat # MD31).
Statistics. All experimental procedures on Tet2-KO samples were run in parallel with wildtype controls (sex and age matched littermate controls when possible) for observing experimental variabilities. Analysis of grouped data was not blinded and no samples were excluded. Aged Tet2-KO mice were randomized into two groups for treatment with APX3330 or vehicle, SHP099 or vehicle (FIGS. 11A-11D). P-value was calculated using an unpaired t-test for comparing means of two groups (GraphPad Prism 6.0). Error bars in FIGS. 1-10 and 11A indicate the standard error of mean (s.e.m.) while error bars in FIG. 11C indicate the standard deviation (s.d.). Except that the secondary cBMT was performed in only one independent experiment for each group, all other assays were performed in at least two independent experiments with at least 3-5 biological replicates in total.
Furthermore, aged Tet2-KO maintained higher level of serum IL-6 compared to wildtype mice (FIG. 13H). 6-month old Tet2-KO mice were treated with APX3330 or SHP099 to assess the potential therapeutic benefit of these drugs in older mice (daily treatment for 14 days, FIG. 13I).

Tet2-KO mice = experiment: LPS-induced acute inflammation (emergency granulopoiesis/hematopoiesis) in mice; format: in vivo, mouse; conditions: for LPS-induced expansion of LSK cells in bone marrow / LPS-induced emergency neutrophil production in peripheral blood (emergency granulopoiesis): LPS 0.8 mg/kg i.p. one dose, drug two days before and two days after LPS, day 2 post LPS; for LPS-induced emergency neutrophil production in peripheral blood (emergency granulopoiesis): APX3330 20 mg/kg twice a day i.p., SHP099 50 mg/kg daily gavage
Description: Mice, LPS treatment and peripheral blood analysis. All mice were bred and maintained under specified pathogen-free (SPF) conditions at an animal facility at Indiana University School of Medicine. Experiments with mice were approved by the Institutional Animal Care and Use Committee (IACUC) of Indiana University School of Medicine. Tet2-knockout mice (Tet2^−/−, or Tet2-KO, CD45.2) is on C57BL/6 genetic background and has been previously described in Li et al., Blood 118, 4509-4518 (2011). Normal C57BL/6 (wild type, CD45.2) mice were purchased from The Jackson Laboratory and used as controls for all experiments. Whenever possible littermates were used as controls for all experiments.
as §1, §2, §3
It was next examined if APX3330 or SHP099 could repress inflammation and “emergency hematopoiesis” in Tet2-KO mice in vivo. It was first assessed if APX3330 or SHP099 could normalize LPS-induced acute inflammation. Before challenging the mice with LPS, wildtype and Tet2-KO mice were prophylactically treated with APX3330 or SHP099 for two days. Post LPS treatment, APX3330 or SHP099 was continuously injected in these mice for another two days (FIG. 13A). On day 2, post LPS treatment, mice were sacrificed and analyzed.

[1] = system: Tet2-KO Lin-negative bone marrow cells; experiment: CFU (colony forming unit) assay, primary and secondary replating; format: cell-based, mouse; conditions: primary and secondary plating, in vitro
Description: CFU assay. Bone marrow Lin-negative cells or LSK cells were isolated as described above and platted in a CFU assay using MethoCult™ GF M3434 (Stem Cell). Colonies were counted after 7-days of culture.

Morrbid promoter = experiment: CHIP-qPCR assay of IκBζ and Stat3 binding; format: cell-based, mouse; conditions: Tet2-KO Lin-negative bone marrow cells
Description: CHIP-qPCR assay. BM Lin-negative cells were used to extract chromatin DNA using MAGnify™ Chromatin Immunoprecipitation System (ThermoFisher) according to the manufacturer's instruction. CHIP purified chromatin DNA and input DNA were normalized to identical concentration for qPCR validation and enrichment analysis (1% enrichment of input level was defined as unit 1). The following antibodies were used for chromatin precipitation:Anti-IκBζ and Anti-Stat3 (Cell Signaling Technologies).

phospho-Stat3 = phospho-Stat3 expression in Tet2-KO Lin-negative cells; format: cell-based, mouse
[2] = aged (6-month old) Tet2-KO mice
[3] = aged (6-month old) Tet2-KO mice, listed as E3330

SMILES | frequency of LSKs and CMPs (aged Tet2-KO mice; [2]) | neutrophil counts (absolute numbers, burden) in peripheral blood (aged Tet2-KO mice; [2]) | neutrophil frequency (percentage) in peripheral blood (aged Tet2-KO mice; [2]) | platelet counts (aged Tet2-KO mice; [2]) | red blood cell (RBC) counts (anemia) (aged Tet2-KO mice; [2]) | serum IL-6 levels (aged Tet2-KO mice; [2]) | spleen weight / splenomegaly (aged Tet2-KO mice; [2]) | white blood cell (WBC) burden/count (aged Tet2-KO mice; [2]) | early signs of MPN (aged Tet2-KO mice) | LPS-induced expansion of LSK cells in bone marrow (Tet2-KO mice) | LPS-induced emergency neutrophil production in peripheral blood (emergency granulopoiesis) (Tet2-KO mice) | colony forming ability (CFU formation) [1] | IκBζ and Stat3 binding to Morrbid promoter (Morrbid promoter) | also measured
CCCCCCCCCC(=CC1=C(C)C(=O)C(OC)=C(OC)C1=O)C(=O)O [APX3330] | failed to reverse | significantly reduced | significantly reduced | restored | restores; also recorded: rescued to normal levels | reduced | a reduction in spleen weight was also observed in drug treated Tet2-KO mice, although it did not reach statistical significance; also recorded: failed to alter splenomegaly | significantly reduce; also recorded: restores | reverses early signs of MPN | significant correction; also recorded: effectively repressed; also recorded: represses the expansion of LSK cells | significant correction in the enhanced production of neutrophils; also recorded: effectively repressed; also recorded: represses emergency neutrophil production | normalization of colony formation; also recorded: block the enhanced colony forming activity | reduced IKBζ and Stat3 binding to Morrbid promoter | hematocrits (HCT) (aged Tet2-KO mice; [2]): rescued to normal levels; neutrophil counts (absolute numbers, burden) in peripheral blood (aged Tet2-KO mice; [3]): rescue; neutrophil frequency (percentage) in peripheral blood (aged Tet2-KO mice; [3]): rescue; serum IL-6 levels (aged Tet2-KO mice; [3]): rescue; early signs of MPN (aged Tet2-KO mice; listed as E3330): reversed early signs of MPN; LPS-induced emergency neutrophil production in peripheral blood (emergency granulopoiesis) (Tet2-KO mice; listed as E3330): repressed; LPS-induced expansion of LSK cells in bone marrow (Tet2-KO mice; listed as E3330): repressed; bone marrow cellularity (Tet2-KO mice; LPS-treated wild type and Tet2-KO mice, short-term treatment): maintained normal bone marrow cellularity; colony forming ability (CFU formation) ([1]; listed as E3330): corrected the enhanced colony forming ability; IκBζ and Stat3 binding to Morrbid promoter (Morrbid promoter; listed as E3330): rescues the enhanced binding of IκBζ and Stat3 to the Morribid promoter
CC1(N)CCN(c2cnc(-c3cccc(Cl)c3Cl)c(N)n2)CC1 [SHP099, 6-(4-amino-4-methyl-1-piperidinyl)-3-(2,3-dichlorophenyl)-2-pyrazinamine] | failed to reverse | significantly reduce; also recorded: rescue | rescue | restored | restores | reduced; also recorded: rescue | a reduction in spleen weight was also observed in drug treated Tet2-KO mice, although it did not reach statistical significance | significantly reduce; also recorded: restores | reversed early signs of MPN | significant correction; also recorded: effectively repressed | significant correction in the enhanced production of neutrophils; also recorded: effectively repressed | decreased; also recorded: block the enhanced colony forming activity; also recorded: corrected the enhanced colony forming ability | decreased; also recorded: rescues the enhanced binding of IκBζ and Stat3 to the Morribid promoter | expression of phospho-Stat3 (phospho-Stat3): decreased expression of phospho-Stat3

— patent publication US20190350885A1, “PROPHYLAXIS TREATMENT FOR ACUTE MYELOID LEUKEMIA” (Indiana University Research and Technology Corporation, priority 2017, published 2019)
